These results are taken from patent US20040171613A1, “Therapeutic agent for non-immediate type allergic diseases” (JAPAN TOBACCO INC., priority 2001, published 2004).

Series [1] deals with IgE-dependent allergic dermatitis. The note with it: mouse, in vivo, po.
Description: Using a triphase dermatitis model that can be induced by antigen in mouse passively sensitizationed with IgE, the actions of CB2 inverse agonist and CB2 agonist were examined.
*Animal: 8 to 10 weeks-old Female BALB/c mouse (Japan SLC Inc.) was used.
Preparation of solvent: MC was dissolved in distilled water to prepare an aqueous 0.5% MC solution.
Anti-DNP IgE (antibody against DNP; Yamasa Corp.) was prepared to 15 μg/mL with physiological saline. 0.2 mL of the resulting solution was given through the caudal vein to the mouse.
Antigen preparation: 0.15% (w/v) of DNFB (2,4-dinitrofluorobenzene) was prepared in a mixed solution of acetone and olive oil (3:1, v/v) on needed basis.
Antigen application: 25 μl of the antigen solution was applied on each side of both of the ears 24 hours after the administration of the anti-DNP IgE.
From the next day of the antigen application to day 8 after the antigen application, 10 mL/kg test compound was orally administered once a day 9 times in total. On the day of antigen application, the test compound was administered one hour before the antigen application and the test compound was administered one hour before the measurement of the thickness of the ear on day 8 after the antigen application.
Before and 8 days after the antigen application, the thickness of the ear was measured with a dial thickness gauge (Mitutoyo Corp.). The difference between the value measured before the antigen application and at each time point was used as an index of swelling.
After the measurement of ear swelling, spleen and thymus were harvested to weigh their wet weights.
The subject of series [2] is spontaneous scratching reaction. The series is described as follows: spontaneous scratching reaction of NC mouse. The class given is in vivo. The note with it: NC/Jic mice; oral once a day for 3 weeks; vs solvent control. An excerpt:
Currently, NC mouse is used as an animal model of atopic dermatitis. No dermatitis or scratching action is observed when the mouse is kept in an environment under the control of atmospheric microorganisms (in SPF environment). However, when the mouse is kept in a conventional environment, scratching action together with the onset of dermatitis can be observed from about week 8 and the symptom progresses into chronic symptom (J. Dermatol. Sci., 25, 20-28, 2001).
Preparation of solvent: MC was dissolved in tap water to prepare an aqueous 0.5% (w/v) MC solution.
As positive controls, betamethasone valerate (Sigma) and tacrolimus hydrate (extracted from Prograf (Fujisawa Pharmaceutical Co., Ltd.)) were similarly prepared to 1 mg/mL. Betamethasone valerate is one of the adrenocorticosteroids that is considered to be effective for the treatment of atopic dermatitis. Tacrolimus hydrate is a therapeutic agent of atopic dermatitis which is known as an immunosuppressor as described above.
The mice (A) were taken away from the cage and the NC/Jic mice were used at the age of 16 weeks.
Breeding conditions: The mice were fed with solid feed CA-1 (CLEA JAPAN INC.) ad libitum and tap water as drinking water ad libitum, and kept at a temperature of 22±2° C. and a humidity of 55±10% under lighting from 8:00 a.m. to 20:00 p.m.
From 10 days before the start of the experiment, the number of scratching behavior with hind legs of the mice was visually counted (for 20 minutes; once daily) over 2 days or 3 days. Among the plural mice counted, mice with 50 or more average scratching movements per day were selected for use.
The behavior of the mice was filmed under unattended environment with a video camera to count the scratching motion with hind legs for one hour. […] This series of scratching motions was counted as one scratching movement, and all such scratching movements were counted irrespective of scratched sites. The measurement was done on the starting day of administration, and one day, 3, 6, 10, 13, 17 and 20 days after the start of administration. […]

With `CCCCCOc1c(OC)ccc2cc(C(=O)NCc3ccc4c(c3)OCO4)c(=O)[nH]c12` [Compound A, N-(benzo[1,3]dioxol-5-ylmethyl)-7-methoxy-2-oxo-8-pentyloxy-1,2-dihydroquinoline-3-carboxamide], in series [1], the “wet weight of the spleen” value was “no apparent changes” and the “wet weight of the thymus” value is “no apparent changes”. Also, in series [2], the “number of scratching movements” value is “suppressed the number of scratching movements”.
